Read-outs that look alike come from different tables or passages of the source.
Experiments:
db/db mice [1] = assay: Hyperglycemia improving effect in type-II diabetes model mice (Reference Example 1); assay type: in vivo; settings: male db/db mice, oral 1 mL of 15 μg/mL once a day
Method: The final DMSO concentration was adjusted to 0.2%. […] Fasting blood glucose levels and random blood glucose levels were measured over time using Antisense II (Bayer-Sankyo Co., Ltd.). The fasting blood glucose levels were measured after 15 hours of fasting.
Changes over time in random blood glucose levels and fasting blood glucose levels during the test sample administration period are shown in FIGS. 3 and 4.

db/db mice [2] = test system: db/db mice
Method: This test was performed in order to evaluate the pancreatic endocrine gland cell function (insulin production ability) protecting action of 3-O-β-D-glucopyranosyl-4-methyl-ergost-7-en-3-ol by using db/db mice known as a model animal of pancreatic hypofunction or pancreatic tissue dysfunction.
In this test, 6-week old male db/db mice (purchased from Clea Japan, Inc.) were used. These mice were divided into groups, each consisting of 7 animals. Each test sample was dissolved in DMSO, and the concentration was adjusted to 0.1 or 1 μg/mL with physiological saline. The final DMSO concentration was adjusted to 0.2%. The model mice were orally administered with 1 mL of the test sample once a day everyday for 42 days with a sonde. The serum insulin level was measured on the 43rd day of the continuous administration by using Lbis insulin mouse ELISA kit (Shibayagi Co., Ltd).

db/db mice [3] = assay: Pancreatic tissue protecting action, Langerhans islets in pancreatic sections (Test Example 2); assay type: in vivo
Method: The final DMSO concentration was adjusted to 0.2%. […] On the 43rd day of the continuous administration, the pancreas was extracted, divided into three portions of upstream, midstream and downstream from the duodenum side, and fixed with a formalin solution, and then paraffin blocks were prepared in a conventional manner. Section slides were prepared from the paraffin blocks, and subjected to hematoxylin-eosin staining. The numbers of Langerhans islets existing on the sections of the 3 position of the pancreas, and area of Langerhans islet having the maximum area on each section were measured by using an ocular micrometer on a microscope (“ECLIPSE E600”, NIKON CORP.).

[4] = oral 1 μg once a day for 42 days, pancreatic sections

With `CC1C(O[C@@H]2O[C@H](CO)[C@@H](O)[C@H](O)[C@H]2O)CC[C@@]2(C)C1CC=C1[C@@H]3CC[C@H]([C@H](C)CC[C@H](C)C(C)C)[C@@]3(C)CC[C@@H]12` (stereo partly drawn) [Test sample, 3-O-β-D-glucopyranosyl-4-methyl-ergost-7-en-3-ol] the “Changes over time in random blood glucose levels” value (db/db mice [1]; FIG. 3, versus negative sample) was “effect of suppressing the increases in blood glucose levels was clearly observed”, the “Changes over time in fasting blood glucose levels” value (db/db mice [1]; after 15 hours of fasting, FIG. 4, versus negative sample) was “effect of suppressing the increases in blood glucose levels was clearly observed” and the “Effect on serum insulin level (pancreatic function protecting effect)” value (db/db mice [2]; 0.1 μg/animal, 43rd day) was “any significant effect was not observed”. For the same compound, the “Serum insulin level relative to that observed in the negative test” value (db/db mice [2]; 1 μg/animal, 43rd day) was 216%, the “Serum insulin levels on 43rd day of administration” value (db/db mice [2]; oral 0.1 μg/animal once a day for 42 days) was 2.24 ± 0.66 ng/mL and the “Serum insulin levels on 43rd day of administration” value (db/db mice [2]; oral 1 μg/animal once a day for 42 days) was 4.29 ± 0.71 ng/mL. The “Maximum areas of Langerhans islets relative to that observed in the negative test” value (db/db mice [3]; 1 μg, 43rd day) was 3.6 times, the “Number of Langerhans islets relative to negative sample-administered mice” value (db/db mice [3]; 1 μg, 43rd day) was 188% and the “Maximum area of Langerhans islets on 43rd day of administration” value (db/db mice [3]; [4]) was 160.0 ± 116.7 × 10^3 (μm^2). For the same compound, the “The numbers of Langerhans islets in sections on 43rd day of administration” value (db/db mice [3]; [4]) was 75.7 ± 24.7 piece.

— US7531520B2, “Drug and food or drink for improving pancreatic functions” (Morinaga Milk Industry Co., Ltd., priority 2005, dated 2009)
